The supplement of paper PMC10307832

Experiments:
Test in all cases: relative viability (nuclei count vs DMSO), 5 days (fraction); higher = more cells survive
Quizartinib + Crizotinib = compound: CC(C)(C)c1cc(NC(=O)Nc2ccc(-c3cn4c(n3)sc3cc(OCCN5CCOCC5)ccc34)cc2)no1 [Quizartinib] + C[C@@H](Oc1cc(-c2cnn(C3CCNCC3)c2)cnc1N)c1c(Cl)ccc(F)c1Cl [Crizotinib] (partner 1 µM)
How it was run: (§1)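 Lung cancer cell lines, seeded in 1536-well plates, were treated the following day by pin tool with a single drug or with five library-drug doses (not always all listed) in √10 steps on top of a fixed anchor-drug dose. Cells were fixed and nuclei stained in one step after 5 days, and nuclei were counted. Relative viability is the nuclei count for treated wells divided by that for vehicle wells, reported as medians of duplicate plates.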

Quizartinib + Linsitinib = compound: CC(C)(C)c1cc(NC(=O)Nc2ccc(-c3cn4c(n3)sc3cc(OCCN5CCOCC5)ccc34)cc2)no1 [Quizartinib] + C[C@]1(O)C[C@@H](c2nc(-c3ccc4ccc(-c5ccccc5)nc4c3)c3c(N)nccn32)C1 [Linsitinib] (partner 1 µM)
How it was run: as §1

Quizartinib + Foretinib = compound: CC(C)(C)c1cc(NC(=O)Nc2ccc(-c3cn4c(n3)sc3cc(OCCN5CCOCC5)ccc34)cc2)no1 [Quizartinib] + COc1cc2c(Oc3ccc(NC(=O)C4(C(=O)Nc5ccc(F)cc5)CC4)cc3F)ccnc2cc1OCCCN1CCOCC1 [Foretinib] (partner 0.25 µM)
How it was run: as §1

YM155 + Pictilisib = compound: COCC[n+]1c2c(n(Cc3cnccn3)c1C)C(=O)c1ccccc1C2=O [YM155] + CS(=O)(=O)N1CCN(Cc2cc3nc(-c4cccc5[nH]ncc45)nc(N4CCOCC4)c3s2)CC1 [Pictilisib] (partner 1 µM)
How it was run: as §1

Row | Cell Line | relative viability (Quizartinib + Crizotinib; first compound 0.001 µM) | relative viability (Quizartinib + Crizotinib; first compound 0.003162 µM) | relative viability (Quizartinib + Crizotinib; first compound 0.01 µM) | relative viability (Quizartinib + Crizotinib; first compound 0.03162 µM) | relative viability (Quizartinib + Crizotinib; first compound 0.1 µM) | relative viability (Quizartinib + Linsitinib; first compound 0.001 µM) | relative viability (Quizartinib + Linsitinib; first compound 0.003162 µM) | relative viability (Quizartinib + Linsitinib; first compound 0.01 µM) | relative viability (Quizartinib + Linsitinib; first compound 0.03162 µM) | relative viability (Quizartinib + Linsitinib; first compound 0.1 µM) | relative viability (Quizartinib + Foretinib; first compound 0.001 µM) | relative viability (Quizartinib + Foretinib; first compound 0.003162 µM) | relative viability (Quizartinib + Foretinib; first compound 0.01 µM) | relative viability (Quizartinib + Foretinib; first compound 0.03162 µM) | relative viability (Quizartinib + Foretinib; first compound 0.1 µM) | relative viability (YM155 + Pictilisib; first compound 0.002 µM) | relative viability (YM155 + Pictilisib; first compound 0.006325 µM) | relative viability (YM155 + Pictilisib; first compound 0.02 µM) | relative viability (YM155 + Pictilisib; first compound 0.06325 µM)
1 | NCI-H1651 | 0.757 | 0.9 | 0.877 | 0.86 | 0.896 | 0.858 | 0.946 | 1.06 | 0.727 | 0.93 | 0.766 | 0.747 | 0.872 | 0.606 | 0.769 | 0.542 | 0.589 | 0.556 | 0.473
2 | NCI-H2347 | 0.719 | 0.788 | 0.704 | 0.585 | 0.762 | 0.943 | 0.956 | 0.969 | 0.908 | 1.07 | 0.655 | 0.963 | 0.638 | 0.892 | 0.938 | 0.574 | 1.03 | 0.829 | 0.633
3 | LC-2-ad | 0.437 | 0.514 | 0.583 | 0.469 | 0.362 | 0.77 | 0.782 | 0.909 | 0.76 | 0.605 | 0.883 | 0.857 | 0.977 | – | 0.904 | 0.455 | 0.586 | 0.568 | 0.452
4 | NCI-H3122 | 0.268 | 0.253 | 0.304 | 0.279 | 0.26 | 1.04 | 1.03 | 1.1 | 1.05 | 0.964 | 0.919 | 0.918 | 0.988 | 0.953 | 0.965 | 0.601 | 0.615 | 0.606 | 0.506
5 | NCI-H1563 | 0.825 | 0.851 | 0.982 | – | 0.78 | 1.01 | 1.04 | 1.17 | – | 0.972 | 0.975 | 0.898 | 0.884 | 0.631 | 0.881 | 0.633 | 0.674 | 0.626 | 0.75
6 | HCC-78 | 0.315 | 0.345 | 0.376 | 0.319 | 0.391 | 0.471 | 0.4 | 0.486 | 0.451 | 0.514 | 0.53 | 0.57 | 0.573 | 0.513 | 0.558 | 0.206 | 0.225 | 0.2 | 0.276
7 | LK-2 | 0.186 | 0.224 | 0.229 | 0.238 | 0.24 | 0.479 | 0.617 | 0.621 | 0.523 | 0.521 | 1.29 | – | 1.03 | 1.33 | 1.43 | 0.565 | 0.541 | 0.475 | 0.53
8 | RERF-LC-KJ | 0.8 | 0.596 | 1 | 0.795 | 0.798 | 0.79 | 0.878 | 0.941 | 0.843 | 0.92 | 0.844 | 0.828 | 0.888 | 0.926 | 0.804 | 0.527 | 0.51 | 0.55 | 0.593
9 | NCI-H1944 | 1.11 | 1.09 | 1.15 | 1.21 | 1.11 | 0.865 | 1.16 | 1.12 | 1.39 | 1.24 | 0.854 | 0.825 | 0.938 | 0.888 | 0.795 | 0.358 | 0.339 | 0.363 | 0.379
10 | ChaGo-K-1 | 1.1 | 1.06 | 1.23 | – | 1.19 | – | – | – | – | – | 0.974 | 0.911 | 0.959 | 0.866 | 0.949 | 0.671 | 0.65 | 0.63 | 0.718
11 | NCI-H1734 | 0.582 | 0.656 | 0.854 | 0.602 | 0.549 | 0.752 | 0.871 | 0.901 | 0.855 | 0.842 | 0.693 | 0.776 | 0.933 | 0.862 | 0.802 | 0.414 | 0.454 | 0.491 | 0.533
12 | 201T | 1 | 1 | 1.03 | 1.02 | 1.05 | 1.06 | 1.04 | 0.969 | 1.06 | 1.11 | 1.07 | 0.998 | 1.09 | 0.942 | 1.01 | 0.703 | 0.677 | 0.672 | 0.707
13 | HCC-827 | 0.934 | 0.877 | 0.961 | 0.934 | 0.879 | 0.99 | 0.924 | 1.05 | 0.962 | 0.994 | 1.02 | 0.922 | 1.07 | 1.06 | 1.07 | 1 | 0.763 | 1 | 1.09
14 | NCI-H1623 | – | – | – | – | – | – | – | – | – | – | 0.694 | 0.884 | 0.831 | 0.844 | 0.859 | – | – | – | –
15 | NCI-H2342 | – | – | – | – | – | – | – | – | – | – | 0.965 | 0.938 | 1.11 | 1 | 0.988 | – | – | – | –
16 | HCC-44 | 0.66 | 0.817 | 0.927 | 0.765 | 0.682 | 0.639 | 0.647 | 0.695 | 0.69 | 0.632 | – | – | – | – | – | 0.565 | 0.469 | 0.674 | 0.726
17 | NCI-H1650 | 0.891 | 0.957 | 1.23 | – | 0.881 | – | – | – | – | – | 0.549 | 1.11 | 1.35 | – | 1.03 | 0.498 | 0.573 | 0.532 | 0.276
18 | NCI-H1395 | – | – | – | – | – | 1.06 | 1.37 | 0.985 | 1.04 | 1.22 | 0.961 | 0.971 | 1.02 | 0.995 | 1.03 | 0.587 | 0.546 | 0.622 | 0.673
19 | NCI-H1793 | – | – | – | – | – | 0.833 | 0.896 | 0.843 | 0.885 | 0.829 | 0.728 | 0.59 | 0.797 | 0.759 | 0.729 | – | 0.303 | 0.318 | 0.211
20 | NCI-H2170 | 1.15 | 1.11 | 1.17 | 1.2 | 1.19 | – | – | – | – | – | 0.932 | 0.956 | 1.08 | 0.981 | 1.12 | 0.296 | 0.357 | 0.349 | 0.329
